Assay results: patent publication US9937161B2, “Combinatorial compositions and methods for treatment of melanoma” (THE GENERAL HOSPITAL CORPORATION, priority 2013, dated 2018)
Each block holds one compound with its values, some of them ahead of it.

Key:
[1] = system: BRAF mutant (UACC-62) melanoma cell line; experiment: MITOTRACKER Red flow cytometry; format: cell-based; details: 1 μM, 72 h
Procedure: (§1) MITOTRACKER® Red, Green and MITOSOX™ were obtained from INVITROGEN™ using manufacturer's recommended protocols. Mean fluorescence was determined by FlowJo software and normalized to vehicle-treated cells.

[2] = system: melanoma cell line that does not contain the BRAF mutation; experiment: Lactate assay; format: cell-based; details: melanoma cell line without BRAF mutation; 16 hours
Procedure: (§2) FIG. 1F are histograms showing the lactate levels in media conditioned from the indicated cell lines treated with PLX4720 or vehicle control for 16 hours.
(§3) Cell number was calculated using the CYQUANT® assay (INVITROGEN™) or crystal violet staining. Lactate measurements were done using the Lactate Assay (BioVision or SIGMA®) per manufacturer's protocols. Indicated cell lines were plated in complete media overnight. Media was changed to serum free-media to avoid interference with the assay for 16 h with either PLX4720 (3 μM) or PLX4032 (1 μM) or vehicle control prior to harvesting cells and measurement of lactate. Results were normalized to cell number. All assays were performed in logarithmically growing cells.

BRAF mutant melanomas [3] = experiment: Lactate assay; format: cell-based; details: all BRAF mutant melanomas evaluated; 16 hours
Procedure: as §2, §3

[4] = system: melanomas with BRAF mutations; experiment: PGC1α mRNA by quantitative PCR; format: cell-based; details: 1 μM, 24 h
[5] = system: melanoma cell line that does not contain the BRAF mutation; experiment: phospho-ERK Western blot; format: cell-based; details: melanoma cell line without BRAF mutation
Procedure: FIG. 1G are representative Western blots showing activated ERK activity in cells of FIG. 1f using phospho-ERK antibodies.
(§4) Whole cell lysates were prepared in lysis buffer supplemented with protease and phosphatase inhibitors (Roche). Equal amounts of protein were resolved by electrophoresis on gradient gels (Bio-Rad).
(§5) Melanoma biopsies prior and during treatment were sectioned, embedded in paraffin and stained with the phospho-ERK1/2 antibody (Cell Signaling Technology). PLX4720 was used at 1 μM concentration in all assays, whereas control samples were treated with an equal volume of DMSO.

[6] = system: BRAF mutant melanoma M14 cells; experiment: PGC1β mRNA time course; format: cell-based; details: over 24 hours
UACC-257 cells = experiment: Pigmentation of cell pellets; format: cell-based; details: 72 h
Description: Equal number of cells was pelleted by centrifugation.

[7] = system: BRAF mutant (UACC-62 and UACC-257) melanoma cell lines; experiment: MITOTRACKER Green flow cytometry (mitochondrial density); format: cell-based; details: 1 μM, 72 h; two BRAF mutant melanomas
Procedure: as §1

[8] = system: BRAF wild-type (MeWo) melanoma cell line; experiment: as above; format: cell-based; details: 1 μM, 72 h
Procedure: as §1

[9] = system: BRAF mutant (UACC-62) melanoma cell line; experiment: MITOSOX fluorescence assay; format: cell-based; details: 1 μM, 72 h
Procedure: as §1

PGC1α promoter = PGC1α promoter luciferase assay; format: cell-based; details: UACC-62 cells; 48 h; wild-type promoter
Procedure: The murine PGC1α promoter was obtained from ADDGENE. Mutant promoters were verified by sequencing. UACC-62 cells were transfected with each promoter construct, pRL-CMV Renilla control and a M-MITF overexpression vector. PLX4720 treatment was for 48 h. Results reported are averages of at least three independent experiments, normalized for transfection efficiency using Renilla luciferase.

BRAF wild-type melanoma = experiment: PGC1α mRNA by quantitative PCR; format: cell-based; details: 1 μM, 24 h
[10] = system: BRAF mutant melanoma cell line UACC62; experiment: Electron microscopy, mitochondrial number; format: cell-based; details: 3 μM, 72 hrs
Procedure: Electron microscopy of UACC-62 melanoma cells treated with vehicle or PLX4720 (3 μM, 72 hrs) was performed at Massachusetts General Hospital's PMB Microscopy Core. Cells were fixed for 1 hr at room temp in 2.0% glutaraldehyde in 0.1 M sodium cacodylate buffer, pH 7.4 (Electron Microscopy Sciences, Hatfield, Pa.). Cells were rinsed in buffer, scraped and pelleted. The pellets were treated with 1.0% osmium tetroxide (EMS) in cacodylate buffer for 1 hr at room temp. They were rinsed and then resuspended in 2.0% agarose for ease of handling. Small pieces were dehydrated through a graded series of ethanol, then infiltrated with eponate resin (Ted Pella, Redding, Calif.) overnight at room temp. They were then embedded in resin overnight at 60° C. Thin sections were cut on a Leica UC6 ultramicrotome, collected onto formvar-carbon coated slot grids and post-stained with uranyl acetate and lead citrate. […] Images were collected with an AMT digital imaging system (Advanced Microscopy Techniques, Danvers, Mass.). Mitochondrial density was calculated by morphometrics by standard protocols.

[11] = system: BRAF mutant colon cancer cell lines; experiment: phospho-ERK Western blot; format: cell-based; details: two BRAF mutant colon cancer cell lines; 1 μM, 24 h
Procedure: FIG. 2B are representative Western blots showing the ERK activity in melanoma or colon cancer cells treated with PLX4720 (1 μM) for 24 h.
as §4, §5

[12] = system: BRAF mutant colon cancer cell lines; experiment: PGC1α mRNA by quantitative PCR; format: cell-based; details: two BRAF mutant colon cancer cell lines; 1 μM, 24 h
[13] = system: melanoma cells or primary human melanocytes; experiment: Cell number after 2,4-DNP, melanoma cells versus melanocytes; format: cell-based; details: 50 μg/mL, 72 h
Procedure: FIG. 13 are histograms showing the number of melanoma cells or primary human melanocytes following treatment with 2,4-DNP (50 μg/mL) for 72 h. **, p<0.01 compared to primary melanocytes treated with 2,4-DNP.
(§6) Indicated cell lines were plated in complete media overnight. […] Results were normalized to cell number. All assays were performed in logarithmically growing cells.

UACC257 xenografts = experiment: Xenograft tumor study; format: in vivo, mice; details: 2,4-DNP 20 mg/kg/day or vemurafenib 75 mg/kg/day by oral gavage
A375P xenografts = experiment: Xenograft tumor study; format: in vivo, mice; details: 2,4-DNP 20 mg/kg/day by oral gavage
Procedure: FIG. 7G are line graphs showing the effect of 2,4-DNP (20 mg/kg/day) or vemurafenib (75 mg/kg/day) on murine melanoma xenografts of A375P cell line (n=7-8 per group). **, p<0.01 compared to vehicle group; ***, p<0.001 compared to vehicle group.
All mouse experiments (tumor nucleation studies and longitudinal drug treatment) were done in accordance with Institutional Animal Care and Use Committee (IACUC) approved animal protocols at Dana-Farber Cancer Institute. Engineered melanoma cells with BRAF(V600E)+vector or +MITF were inoculated subcutaneously at three flank positions (100,000 cells in 100 μL PBS per site) in NCR-FoxNu (male, 6 weeks) animals. Tumor establishment was monitored and experiment was terminated after 10 weeks. For longitudinal tumor treatment studies, melanoma cell lines (A375P and UACC257, both carrying pFUW-mCherry-puro-LUC) were injected subcutaneously into NCR-FoxNu mice (5,000,000 cells in 100 μL PBS with growth factor reduced matrigel). Initial tumor establishment and growth visualized by in vivo imaging by comparing signal obtained seven (7) days apart. […] Treatment with vemurafenib (75 mg/kg/day) or 2,4-DNP (20 mg/kg/day) was administered by oral gavage in 0.5% methyl cellulose and tumor size measured by calipers twice weekly. Mean response measured based on cohorts of 6-7 mice for each arm (and each cell line).

A375P cells [14] = experiment: Lactate assay after 2,4-DNP; format: cell-based; details: 50 μg/mL, 24 h
Procedure: (§7) FIG. 7E are histograms showing the effects of 2,4-DNP (50 μg/mL, 24 h) on the lactate levels in the indicated cell lines in vitro.
as §6

UACC257 cells [15] = experiment: Lactate assay after 2,4-DNP; format: cell-based; details: 50 μg/mL, 24 h
Procedure: as §7, §6

A375P cells [16] = experiment: ATP assay after 2,4-DNP; format: cell-based; details: 50 μg/mL, 24 h
Procedure: (§8) FIG. 7D are histograms showing the effects of 2,4-DNP (50 μg/mL, 24 h) on ATP in the indicated cell lines in vitro.
(§9) Glucose uptake (relative to total cell numbers) was measured over 24 h as trace [^3H]-deoxyglucose uptake in cells growing in glucose-containing media followed by plate harvest and subsequent analysis on a PerkinElmer® Wallac 1450 Microbeta scintillation counter. Oxygen consumption was measured using XF Flux Analyzer (Seahorse Biosciences) using standard protocols. ATP measurements were conducted using ENLITEN® ATP assay (PROMEGA®) according to standard trichloroacetic acid (TCA) extraction protocols.

UACC257 cells [17] = experiment: ATP assay after 2,4-DNP; format: cell-based; details: 50 μg/mL, 24 h
Procedure: as §8, §9

[18] = system: BRAF(V600E)+vector and BRAF(V600E)+MITF melanoma cells; experiment: Cell number after 2,4-DNP in isogenic cells; format: cell-based, human; details: 72 h
Procedure: FIG. 7A are histograms showing the number of BRAF(V600E)+vector and BRAF(V600E)+MITF melanoma cells following treatment with 2,4-DNP with indicated dose for 72 h.
as §6

melanoma cells (M14) = experiment: Cell number, mitochondrial inhibitors combined with PLX4720; details: in vitro; cell number after 72 hrs
Procedure: (§10) Melanoma cell were treated for 24 h with PLX4720 then mitochondrial uncoupler for 48 h, prior to estimation of cell number.
as §10, §3

BRAF mutant melanomas [19] = experiment: Gene set enrichment analysis of melanoma cell lines treated with vemurafenib; format: cell-based; details: PLX4032 treated melanoma cell lines (n = 6)
[20] = system: BRAF(V600E) parental cells; experiment: ATP assay in isogenic cells; format: cell-based, human; details: 1 μM, 24 h
Procedure: FIG. 6G are histograms showing the ATP levels, normalized to cell number in BRAF(V600E)+vector and BRAF(V600E)+MITF treated with PLX4032 (1 μM) for 24 h. ***, p<0.001 compared to control cells.
as §9

activity of PGC1α promoter upstream of luciferase (PGC1α promoter): induction of the wild-type promoter
SMILES: CCCS(=O)(=O)Nc1ccc(F)c(C(=O)c2c[nH]c3ncc(Cl)cc23)c1F [PLX4720, N-[3-[(5-Chloro-1H-pyrrolo[2,3-b]pyridin-3-yl)carbonyl]-2,4-difluorophenyl]-1-propanesulfonamide]
MITOTRACKER Red fluorescence (mitochondrial activity and mass) [1]: induced
lactate levels [2]: did not change
lactate levels (BRAF mutant melanomas [3]): reduced
PGC1α mRNA ([4]; M14 cells, control siRNA): strongly induced
induction of PGC1α mRNA ([4]; UACC62 cells, control siRNA): 3 fold
increase in PGC1α mRNA ([4]; all melanomas with BRAF mutations): 3-14 fold
ERK signaling [5]: inability of PLX4720 to suppress ERK signaling
PGC1β mRNA [6]: no change
pigmentation (UACC-257 cells): increased pigmentation
mitochondrial density (MITOTRACKER Green) [7]: increased
mitochondrial density (MITOTRACKER Green) [8]: did not affect
production of mitochondrial oxidative stress (MITOSOX) [9]: increased
expression of PGC1α (BRAF wild-type melanoma): No change
number of mitochondria per cell [10]: significant increase
ERK phosphorylation [11]: suppression of ERK phosphorylation similar to that seen in melanomas
PGC1α expression [12]: no effect

SMILES: O=[N+]([O-])c1ccc(O)c([N+](=O)[O-])c1 [2,4-DNP, 2,4-dinitrophenol]
sensitivity of melanoma cells compared to primary melanocytes (cell number) [13]: more sensitive to DNP than primary melanocytes, except A375P
tumor growth (UACC257 xenografts): profoundly inhibited tumor growth
tumor growth (A375P xenografts): insensitive
increases in lactate (A375P cells [14]): not
lactate (UACC257 cells [15]): increases
decrease in ATP (A375P cells [16]): not
ATP (UACC257 cells [17]): decrease
sensitivity of BRAF(V600E)+MITF cells versus BRAF(V600E)+vector cells (cell number) [18]: significantly more sensitive
Combination Index with PLX4720 (additively enhanced the efficacy of PLX4720) (melanoma cells (M14)): 0.9

SMILES: CCCS(=O)(=O)Nc1ccc(F)c(C(=O)c2c[nH]c3ncc(-c4ccc(Cl)cc4)cc23)c1F [vemurafenib]
ES, CANCERDRUGS_PROBCELL_UP (BRAF mutant melanomas [19]; gene set size 15): −0.6598
NES, CANCERDRUGS_PROBCELL_UP (BRAF mutant melanomas [19]; gene set size 15): −1.791
ES, CAMPTOTHECIN_PROBCELL_UP (BRAF mutant melanomas [19]; gene set size 17): −0.6506
NES, CAMPTOTHECIN_PROBCELL_UP (BRAF mutant melanomas [19]; gene set size 17): −1.802
ES, ATP_SYNTHESIS (BRAF mutant melanomas [19]; gene set size 19): −0.6141
ES, FLAGELLAR_ASSEMBLY (BRAF mutant melanomas [19]; gene set size 19): −0.6141
ES, TYPE_III_SECRETION_SYSTEM (BRAF mutant melanomas [19]; gene set size 19): −0.6141
NES, ATP_SYNTHESIS (BRAF mutant melanomas [19]; gene set size 19): −1.75
NES, FLAGELLAR_ASSEMBLY (BRAF mutant melanomas [19]; gene set size 19): −1.8
NES, TYPE_III_SECRETION_SYSTEM (BRAF mutant melanomas [19]; gene set size 19): −1.739
ES, CITRATE_CYCLE_TCA_CYCLE (BRAF mutant melanomas [19]; gene set size 20): −0.8827
ES, PHOTOSYNTHESIS (BRAF mutant melanomas [19]; gene set size 20): −0.6181
NES, CITRATE_CYCLE_TCA_CYCLE (BRAF mutant melanomas [19]; gene set size 20): −2.017
NES, PHOTOSYNTHESIS (BRAF mutant melanomas [19]; gene set size 20): −1.797
ES, BRENTANI_TRANSPORT_OF_VESICLES (BRAF mutant melanomas [19]; gene set size 23): −0.604
NES, BRENTANI_TRANSPORT_OF_VESICLES (BRAF mutant melanomas [19]; gene set size 23): −1.772
ES, HSA00020_CITRATE_CYCLE (BRAF mutant melanomas [19]; gene set size 25): −0.6303
NES, HSA00020_CITRATE_CYCLE (BRAF mutant melanomas [19]; gene set size 25): −1.94
ES, HSA00640_PROPANOATE_METABOLISM (BRAF mutant melanomas [19]; gene set size 29): −0.5472
NES, HSA00640_PROPANOATE_METABOLISM (BRAF mutant melanomas [19]; gene set size 29): −1.733
ES, VALINE_LEUCINE_AND_ISOLEUCINE_DEGRADATION (BRAF mutant melanomas [19]; gene set size 35): −0.5231
NES, VALINE_LEUCINE_AND_ISOLEUCINE_DEGRADATION (BRAF mutant melanomas [19]; gene set size 35): −1.732
ES, HSA000280_VALINE_LEUCINE_AND_ISOLEUCINE_DEGRADATION (BRAF mutant melanomas [19]; gene set size 42): −0.5627
NES, HSA000280_VALINE_LEUCINE_AND_ISOLEUCINE_DEGRADATION (BRAF mutant melanomas [19]; gene set size 42): −1.945
ES, OXIDATIVE_PHOSPHORYLATION (BRAF mutant melanomas [19]; gene set size 55): −0.5114
NES, OXIDATIVE_PHOSPHORYLATION (BRAF mutant melanomas [19]; gene set size 55): −1.891
ES, HSA00190_OXIDATIVE_PHOSPHORYLATION (BRAF mutant melanomas [19]; gene set size 100): −0.4531
NES, HSA00190_OXIDATIVE_PHOSPHORYLATION (BRAF mutant melanomas [19]; gene set size 100): −1.845
ES, PENG_GLUTAMINE_UP (BRAF mutant melanomas [19]; gene set size 227): −0.3896
NES, PENG_GLUTAMINE_UP (BRAF mutant melanomas [19]; gene set size 227): −1.777
drop in ATP [20]: 42%
